Assay results from patent US7875297B2, “Method for treating menorrhagia” (Ablation Products LLC, priority 2003, dated 2011).

System: beef muscle tissue (fillet mignon)
Assay: Tissue necrosis with AgNO3 bearing beads placed on the surface of beef muscle tissue
Excerpt: The degree of necrosis was rated as follows: slight visible pitting of the tissue surface (+); moderate pitting of tissue surface with slight blackening of the tissue (++); significant pitting with moderate blackening of the tissue (+++); severe pitting with complete blackening of the tissue ([…]+); and severe pitting with complete blackening of the tissue, spreading beyond the point of contact (+++++).

In the case of `O=[N+]([O-])[O-].[Ag+]` [AgNO3 Crystal, silver nitrate], the “Tissue Necrosis (degree of necrosis of the tissue under each bead)” value (“Tissue Necrosis” for short) (Time 5 minutes) is reported as “+ + +”, the “Tissue Necrosis” value (Time 10 minutes) is reported as “+ + + +” and the “Tissue Necrosis” value (Time 15 minutes) is reported as “+ + + + +”.
